Measurements as given in ChEMBL document CHEMBL1201862, “PubChem BioAssay data set” (2004).
The source made the active and inactive calls.

Experiments:
[1] = M. tuberculosis H37Rv growth inhibitors, H37Rv strain (AID 1626); format: functional
[2] = NIH3T3 cell viability loss – ATP luminescence, mouse fibroblasts, counter-screen, dose response (AID 2010); format: functional, cell-based;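 also: cells exposed to compound for about 90 hours before reading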
[3] = cells
[4] = Trypanosoma cruzi growth suppression in host cells – NIH3T3 host cells, beta-gal luminescence, confirmation (AID 2044); format: functional, cell-based;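 also: intracellular parasites grown in NIH/3T3 mouse fibroblasts as host cells; luminescent beta-galactosidase reporter signal from transgenic T. cruzi replicating inside host cells; inhibitors lower the luminescence signal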
[5] = target: NADPH oxidase 1 (Homo sapiens, UniProt Q9Y5S8); format: functional, cell-based;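 also: Cell-based assay with luminescence read-out, IC50 derived from inhibitor dose-response curves; intracellular ROS from endogenous NOX1 in intact HT29 colon cancer cells; potency of inhibitors that lower the ROS luminescence signal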
NADPH oxidase 1, sequence (Q9Y5S8 whole entry): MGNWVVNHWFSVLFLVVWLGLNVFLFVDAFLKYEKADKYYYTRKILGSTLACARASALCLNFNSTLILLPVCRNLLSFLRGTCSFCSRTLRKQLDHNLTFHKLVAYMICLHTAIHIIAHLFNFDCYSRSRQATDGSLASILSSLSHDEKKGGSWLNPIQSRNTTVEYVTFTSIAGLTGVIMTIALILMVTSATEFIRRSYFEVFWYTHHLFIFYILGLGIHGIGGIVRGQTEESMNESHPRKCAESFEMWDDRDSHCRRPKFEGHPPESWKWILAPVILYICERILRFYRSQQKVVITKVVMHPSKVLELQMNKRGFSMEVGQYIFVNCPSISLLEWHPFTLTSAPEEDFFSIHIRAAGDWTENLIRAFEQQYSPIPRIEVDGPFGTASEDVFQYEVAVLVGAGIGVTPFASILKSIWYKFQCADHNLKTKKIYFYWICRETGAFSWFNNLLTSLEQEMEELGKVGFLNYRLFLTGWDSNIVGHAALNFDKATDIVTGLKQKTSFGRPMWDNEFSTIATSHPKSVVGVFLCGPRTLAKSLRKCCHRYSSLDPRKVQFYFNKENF

[6] = target: T1, High affinity choline transporter 1 (Homo sapiens, UniProt Q9GZV3); assay: human choline transporter blockers, potency – cell-based, 5-point CRC, membrane potential dye, dose response (AID 504840); format: functional
T1 sequence (Q9GZV3 whole entry): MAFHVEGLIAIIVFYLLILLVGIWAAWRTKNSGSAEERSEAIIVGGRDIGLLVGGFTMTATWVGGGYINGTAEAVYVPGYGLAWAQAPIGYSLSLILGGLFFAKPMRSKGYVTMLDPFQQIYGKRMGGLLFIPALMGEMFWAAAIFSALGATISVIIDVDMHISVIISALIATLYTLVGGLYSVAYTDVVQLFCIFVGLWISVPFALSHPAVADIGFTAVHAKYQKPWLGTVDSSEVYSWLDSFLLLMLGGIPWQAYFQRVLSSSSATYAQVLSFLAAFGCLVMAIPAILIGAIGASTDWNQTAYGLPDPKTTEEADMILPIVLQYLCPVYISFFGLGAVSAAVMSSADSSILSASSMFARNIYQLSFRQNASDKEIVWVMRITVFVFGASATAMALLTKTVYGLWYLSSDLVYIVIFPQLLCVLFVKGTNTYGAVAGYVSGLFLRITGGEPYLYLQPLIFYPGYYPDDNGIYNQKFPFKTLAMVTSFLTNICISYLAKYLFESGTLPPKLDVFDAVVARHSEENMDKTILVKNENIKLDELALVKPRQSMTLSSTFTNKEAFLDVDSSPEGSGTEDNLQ

[7] = target: Aryl hydrocarbon receptor (Homo sapiens, UniProt P35869); assay: Luminescence-based cell-based high throughput dose response assay for activators of the Aryl Hydrocarbon Receptor (AHR). [Related pubchem assays: 2796 (Primary screen (AHR activators in singlicate)), 2845 (Confirmation screen (AHR activators in triplicate)), 434939 (Counterscreen (PXR activators in triplicate)), 2804 (Summary (AHR activators))]; format: ADME
Aryl hydrocarbon receptor, sequence (P35869 whole entry): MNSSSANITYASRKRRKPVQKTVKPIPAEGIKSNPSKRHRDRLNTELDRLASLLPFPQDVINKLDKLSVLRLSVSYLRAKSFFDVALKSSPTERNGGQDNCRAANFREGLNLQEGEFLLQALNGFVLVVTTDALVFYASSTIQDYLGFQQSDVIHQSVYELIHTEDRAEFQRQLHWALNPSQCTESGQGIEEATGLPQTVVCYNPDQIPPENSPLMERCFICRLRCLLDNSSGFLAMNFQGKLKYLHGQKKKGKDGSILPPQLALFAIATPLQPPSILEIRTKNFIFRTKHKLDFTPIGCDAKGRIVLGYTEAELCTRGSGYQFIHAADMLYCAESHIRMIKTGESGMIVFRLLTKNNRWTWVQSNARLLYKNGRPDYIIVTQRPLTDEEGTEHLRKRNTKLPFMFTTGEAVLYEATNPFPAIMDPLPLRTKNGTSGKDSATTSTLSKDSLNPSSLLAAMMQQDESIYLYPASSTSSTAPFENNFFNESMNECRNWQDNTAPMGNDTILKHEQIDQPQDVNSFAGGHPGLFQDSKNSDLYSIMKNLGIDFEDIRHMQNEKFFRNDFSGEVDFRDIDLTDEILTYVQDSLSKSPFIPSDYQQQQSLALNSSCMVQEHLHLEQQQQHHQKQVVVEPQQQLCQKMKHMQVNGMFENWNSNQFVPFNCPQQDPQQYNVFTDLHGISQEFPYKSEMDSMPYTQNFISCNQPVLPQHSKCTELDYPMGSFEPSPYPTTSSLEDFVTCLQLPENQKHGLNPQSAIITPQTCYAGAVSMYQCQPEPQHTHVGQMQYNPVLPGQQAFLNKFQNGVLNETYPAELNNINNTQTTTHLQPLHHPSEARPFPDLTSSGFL

[8] = target: Cytochrome P450 2C19 (Homo sapiens, UniProt P33261); assay: qHTS Assay for Inhibitors and Substrates of Cytochrome P450 2C19. [Related pubchem assays: 410 ]; format: ADME; conditions: read-out: Potency
Cytochrome P450 2C19, sequence (P33261 whole entry): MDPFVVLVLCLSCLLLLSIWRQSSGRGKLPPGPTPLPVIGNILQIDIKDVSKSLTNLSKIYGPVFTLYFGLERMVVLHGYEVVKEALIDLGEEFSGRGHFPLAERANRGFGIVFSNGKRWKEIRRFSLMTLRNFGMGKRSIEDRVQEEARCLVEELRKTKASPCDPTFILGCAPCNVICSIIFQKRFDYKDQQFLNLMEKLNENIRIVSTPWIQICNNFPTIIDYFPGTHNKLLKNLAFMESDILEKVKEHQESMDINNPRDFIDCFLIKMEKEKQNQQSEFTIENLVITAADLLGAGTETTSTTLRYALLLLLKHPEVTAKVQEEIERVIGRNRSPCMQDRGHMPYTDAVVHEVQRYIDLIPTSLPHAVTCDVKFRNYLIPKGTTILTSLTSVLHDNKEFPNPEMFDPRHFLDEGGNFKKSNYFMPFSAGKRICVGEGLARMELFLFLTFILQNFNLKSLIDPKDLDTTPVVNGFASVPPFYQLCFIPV

[9] = target: Cytochrome P450 3A4 (Homo sapiens, UniProt P08684); conditions: Potency;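 also: confirmatory qHTS run detecting inhibitors and substrates of CYP3A4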
Cytochrome P450 3A4, sequence (P08684 whole entry, the tested form may be a part): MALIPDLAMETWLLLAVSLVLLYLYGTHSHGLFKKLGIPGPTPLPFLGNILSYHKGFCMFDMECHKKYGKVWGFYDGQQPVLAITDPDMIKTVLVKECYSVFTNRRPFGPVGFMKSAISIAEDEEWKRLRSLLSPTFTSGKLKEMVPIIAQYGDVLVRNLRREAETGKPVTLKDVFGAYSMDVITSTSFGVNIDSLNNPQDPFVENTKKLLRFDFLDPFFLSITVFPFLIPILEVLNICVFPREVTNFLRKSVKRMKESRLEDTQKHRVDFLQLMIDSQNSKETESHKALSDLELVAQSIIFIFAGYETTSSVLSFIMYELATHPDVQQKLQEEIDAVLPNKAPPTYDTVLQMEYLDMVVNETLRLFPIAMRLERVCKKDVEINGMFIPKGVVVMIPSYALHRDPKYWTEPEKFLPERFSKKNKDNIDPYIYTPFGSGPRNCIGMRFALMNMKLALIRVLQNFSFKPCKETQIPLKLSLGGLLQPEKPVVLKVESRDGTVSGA

[10] = target: T2, Carboxy-terminal domain RNA polymerase II polypeptide A small phosphatase 1 (Homo sapiens, UniProt Q9GZU7); assay: CTDSP1 inhibitors, concentration-response, biochemical, absorbance readout, ultra-high-throughput screen actives (AID 540297); format: functional
T2 sequence (Q9GZU7 whole entry): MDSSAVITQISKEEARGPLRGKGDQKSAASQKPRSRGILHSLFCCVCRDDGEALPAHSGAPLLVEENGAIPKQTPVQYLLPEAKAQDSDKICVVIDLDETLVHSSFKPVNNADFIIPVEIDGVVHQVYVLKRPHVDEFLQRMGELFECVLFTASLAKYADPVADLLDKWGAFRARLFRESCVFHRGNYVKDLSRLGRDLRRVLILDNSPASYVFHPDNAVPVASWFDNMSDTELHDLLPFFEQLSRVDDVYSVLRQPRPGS

[11] = HIV-1 Vif–A3G interaction blockers – biochemical, TR-FRET, GST-Vif 1-94, biotin-A3G peptide, dose response retest, primary screen (AID 1117319); format: functional;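 also: TR-FRET signal of purified GST-Vif binding a biotinylated A3G peptide; inhibitors lower the FRET signal by blocking Vif and A3G binding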
[12] = target: T3, Estrogen receptor beta (Homo sapiens, UniProt Q92731); assay: blockers of SRC-3 recruitment to ERβ – biochemical, ELISA, streptavidin-HRP readout, orthogonal assay, confirmation (AID 1060)
T3 sequence (Q92731 whole entry): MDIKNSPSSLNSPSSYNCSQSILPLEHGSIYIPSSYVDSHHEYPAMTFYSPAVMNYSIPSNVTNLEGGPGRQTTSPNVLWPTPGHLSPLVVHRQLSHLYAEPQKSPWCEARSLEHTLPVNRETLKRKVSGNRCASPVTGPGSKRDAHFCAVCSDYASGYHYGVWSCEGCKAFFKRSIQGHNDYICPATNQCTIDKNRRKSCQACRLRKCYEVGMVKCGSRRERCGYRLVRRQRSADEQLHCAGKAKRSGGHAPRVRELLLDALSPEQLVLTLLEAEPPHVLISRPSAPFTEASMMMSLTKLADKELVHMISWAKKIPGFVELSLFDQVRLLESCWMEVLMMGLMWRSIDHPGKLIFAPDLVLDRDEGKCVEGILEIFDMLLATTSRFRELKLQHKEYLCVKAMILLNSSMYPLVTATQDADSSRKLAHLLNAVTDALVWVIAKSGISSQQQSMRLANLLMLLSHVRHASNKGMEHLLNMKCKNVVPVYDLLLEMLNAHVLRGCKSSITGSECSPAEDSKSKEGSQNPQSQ

[13] = target: T3, Estrogen receptor beta

O=C(O)/C=C/C(=O)Nc1ccc(-n2nccc2C(F)(F)F)cc1
IC50 [1]: > 100 µM (active)

O=C(CCC1CCCN(Cc2ccc3c(c2)OCCO3)C1)NCc1ccc(F)c(F)c1 (stereo not drawn)
EC50 [2]: > 60 µM (not active) | EC50 [3]: 0.033 µM (active) | EC50 [4]: < 0.1 µM (active)

O=[N+]([O-])c1ccccc1-c1nc(-c2ccccc2)c(-c2ccccc2)[nH]1
IC50 [5]: > 17 µM (not active)

Cc1ccc[n+](CC(=O)c2ccc(Br)cc2)c1C
IC50 [6]: 13.8 µM (active) | EC50 [7]: 6.77 µM (active)

O=c1cc(-c2ccccc2O)oc2c1ccc1ccccc12
AC50 [8]: 0.251 µM (inconclusive) | AC50 [9]: 15.8 µM (inconclusive)

CCCCN(CCCC)S(=O)(=O)c1ccc(NC(=O)Cc2cccs2)cc1
IC50 [10]: 7.14 µM (active) | IC50 [11]: > 100 µM (active) | IC50 [12]: 1.05 µM (not active) | IC50 [13]: 18.8 µM (active)
